Results on nine molecules are retold here after patent US11111247B2, “Pyrazolopyrimidine compounds and uses thereof” (Incyte Corporation, priority 2018, dated 2021).

The target in one assay is ALK2 (aa 147-end) (Homo sapiens (Human), UniProt Q04771). Description: ALK2 HTRF Assay. The format is biochemical.
The next assay deals with FGFR1 (Homo sapiens, UniProt P11362). The assay is described as follows: pFGFR1 Functional Cell HTRF Assay (BAF3-TEL-FGFR1 cells). The format is cell-based. How it is done: (§1) To measure phosphorylated Fibroblast Growth Factor Receptor 1 and 3 (FGF1 and FGFR3), in house stable cell lines BAF3-TEL-FGFR1 or BAF3-TEL-FGFR3 were maintained in RPMI with 10% FBS and 1 μg/ml puromycin (Gibco/Life Technologies). […] The plates were gently shaken (100 rpm) for 2 minutes at room temperature to mix well and incubated for 2 hours in a single layer at 37° C., 5% CO2. 4 μl/well of 1/25 dilution of lysis buffer #3 (Cis Bio) was added with standard Protease inhibitors and shaken at 200 rpm at room temperature for 20 minutes. 4 μl total of the Cis Bio Tb-pFGFR Ab (10 ng) and d2-FGFR3 (1 ng) together were added to the lysate and mixed well. Plates were sealed and incubated at room temperature overnight in the dark. […] IC50 determination was performed by fitting the curve of inhibitor percent inhibition versus the log of the inhibitor concentration using the GraphPad Prism 5.0 software.
FGFR1, sequence (P11362 22-822 limits assumed): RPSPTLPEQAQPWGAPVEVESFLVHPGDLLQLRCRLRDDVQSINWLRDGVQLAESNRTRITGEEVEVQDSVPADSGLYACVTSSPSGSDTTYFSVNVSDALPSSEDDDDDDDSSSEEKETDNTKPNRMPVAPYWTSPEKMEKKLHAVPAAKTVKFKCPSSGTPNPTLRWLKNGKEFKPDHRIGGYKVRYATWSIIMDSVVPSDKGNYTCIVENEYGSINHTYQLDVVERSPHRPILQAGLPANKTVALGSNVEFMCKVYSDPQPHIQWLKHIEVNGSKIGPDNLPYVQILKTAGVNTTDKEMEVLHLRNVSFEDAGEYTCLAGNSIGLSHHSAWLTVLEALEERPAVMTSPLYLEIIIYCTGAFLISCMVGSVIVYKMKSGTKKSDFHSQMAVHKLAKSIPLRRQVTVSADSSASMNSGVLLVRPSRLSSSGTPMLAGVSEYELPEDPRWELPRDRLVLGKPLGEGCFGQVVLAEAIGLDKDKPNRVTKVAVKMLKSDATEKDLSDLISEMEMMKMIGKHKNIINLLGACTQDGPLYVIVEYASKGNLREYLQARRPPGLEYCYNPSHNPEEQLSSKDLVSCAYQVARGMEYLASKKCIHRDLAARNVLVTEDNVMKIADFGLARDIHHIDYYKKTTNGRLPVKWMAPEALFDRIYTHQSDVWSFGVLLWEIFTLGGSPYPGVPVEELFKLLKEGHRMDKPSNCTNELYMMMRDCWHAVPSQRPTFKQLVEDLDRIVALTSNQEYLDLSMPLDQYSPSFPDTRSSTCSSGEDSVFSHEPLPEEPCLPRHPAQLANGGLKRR

For a further assay, the target named is FGFR3 (Homo sapiens, UniProt P22607). Description: pFGFR3 Functional Cell HTRF Assay (BAF3-TEL-FGFR3 cells). The format is cell-based. The note with it: 2 hours. How it is done:
as §1

Another assay concerns RT112 cells. The assay is described as follows: Luminescent Viability Assay (LVA, FGFR3). The note with it: Homo sapiens, RT-112, 72 h, 3 days, CellTiter-Glo. The format is cell-based. The essentials: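 RT112 bladder cells grown in RPMI with 10% FBS were exposed to a compound concentration range for 3 days. Viability read by CellTiter-Glo luminescence; IC50 fitted from percent inhibition versus log concentration.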

A further assay addresses FGFR2 (P) (Homo sapiens (Human), UniProt P21802). The assay is described as follows: FGFR Enzymatic Assay, FGFR2 phosphorylated. As to conditions: read-out: FGFR2 (P) IC50; phosphorylated enzyme, ATP near or below Km.
A further assay addresses FGFR3 (UP) (Homo sapiens (Human), UniProt P22607). The assay is described as follows: FGFR Enzymatic Assay, FGFR3 un-phosphorylated. As to conditions: read-out: FGFR3 (UP) IC50; un-phosphorylated enzyme, ATP near or below Km.
In another assay the target is FGFR1 (UP) (Homo sapiens (Human), UniProt P11362). The assay is described as follows: FGFR Enzymatic Assay, FGFR1 un-phosphorylated.
FGFR1 (UP), sequence (P11362 22-822): as the sequence (P11362 22-822 limits assumed) above
Another assay has as its target FGFR2 (UP) (Homo sapiens (Human), UniProt P21802). Description: FGFR Enzymatic Assay, FGFR2 un-phosphorylated. As to conditions: read-out: FGFR2 (UP) IC50; un-phosphorylated enzyme, ATP near or below Km.
The next assay has as its target FGFR2 (Homo sapiens, UniProt P21802). Description: pFGFR2 Functional Cell HTRF Assay (KATOIII cells). The format is cell-based. The note with it: 1 hour, read-out: FGFR2 HTRF IC50. The procedure:
To measure phosphorylated Fibroblast Growth Factor Receptor 2 (FGFR2), KATOIII cells (Human Gastric Carcinoma) were purchased from ATCC and maintained in Iscove's with 20% FBS (Gibco/Life Technologies). For the pFGFR2 assay, KATOIII cells were plated overnight in 5% FBS and Iscove's medium at 5×10^4 cells/well into Corning 96-well flat-bottom tissue culture treated plates. The next morning, 50 μl of fresh media with 0.5% FBS was incubated in the presence or absence of a concentration range of test compounds also at 50 μl, for 1 hour at 37° C., 5% CO2. Cell were washed with PBS, and lysed with Cell Signaling Lysis Buffer with standard Protease inhibitors for 45 min at room temperature. 4 μl total of Cis Bio Anti […] together were added to the lysate and mixed well (following directions of the kit). 16 μl was then transferred to 384 well Greiner white plates and stored at 4° C. overnight in the dark. Plates were read on the Pherastar plate reader at 665 nm and 620 nm wavelengths. IC50 determination was performed by fitting the curve of inhibitor percent inhibition versus the log of the inhibitor concentration using the GraphPad Prism 5.0 software. […] NT=Not tested.

For the next assay, the system named is ALK2 mutant DIPG cell. As to conditions: ALK2 mutant DIPG cells; cited from earlier work.
Where [1] appears, read: BAF3-TEL-FGFR1 cells, 2 hours, read-out: FGFR1 HTRF IC50.
The mark [2] stands for this setting: read-out: FGFR1 (UP) IC50, un-phosphorylated enzyme, ATP near or below Km.
The mark [3] stands for this setting: read-out: ALK2 100 μM IC50, 100 uM ATP.

Like-named read-outs stand apart in the source and are kept apart here.

FGFR3, sequence (P22607 23-806 limits assumed): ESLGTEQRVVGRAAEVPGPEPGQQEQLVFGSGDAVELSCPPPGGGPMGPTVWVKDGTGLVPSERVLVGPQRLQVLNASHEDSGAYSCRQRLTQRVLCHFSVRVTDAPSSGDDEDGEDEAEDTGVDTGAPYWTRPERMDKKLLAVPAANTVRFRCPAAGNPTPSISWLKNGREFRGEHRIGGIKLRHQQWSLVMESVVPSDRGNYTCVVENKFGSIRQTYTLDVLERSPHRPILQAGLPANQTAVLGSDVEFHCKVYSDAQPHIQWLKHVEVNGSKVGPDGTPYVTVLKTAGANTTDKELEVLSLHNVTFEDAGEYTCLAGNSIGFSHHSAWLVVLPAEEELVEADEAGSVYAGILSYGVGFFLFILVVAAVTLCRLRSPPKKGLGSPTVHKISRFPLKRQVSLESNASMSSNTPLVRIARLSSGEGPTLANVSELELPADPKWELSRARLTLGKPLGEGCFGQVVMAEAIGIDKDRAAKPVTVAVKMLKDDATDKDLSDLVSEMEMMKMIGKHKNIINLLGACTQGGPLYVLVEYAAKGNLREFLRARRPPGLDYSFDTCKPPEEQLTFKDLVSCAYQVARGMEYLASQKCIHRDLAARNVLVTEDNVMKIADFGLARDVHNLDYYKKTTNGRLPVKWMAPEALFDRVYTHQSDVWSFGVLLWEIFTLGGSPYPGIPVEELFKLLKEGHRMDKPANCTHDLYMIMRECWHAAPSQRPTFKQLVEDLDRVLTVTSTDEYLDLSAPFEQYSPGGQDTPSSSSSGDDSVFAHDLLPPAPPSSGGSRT
FGFR3 (UP), sequence (P22607 23-806): as the sequence (P22607 23-806 limits assumed) above
FGFR2, sequence (P21802 22-821 limits assumed): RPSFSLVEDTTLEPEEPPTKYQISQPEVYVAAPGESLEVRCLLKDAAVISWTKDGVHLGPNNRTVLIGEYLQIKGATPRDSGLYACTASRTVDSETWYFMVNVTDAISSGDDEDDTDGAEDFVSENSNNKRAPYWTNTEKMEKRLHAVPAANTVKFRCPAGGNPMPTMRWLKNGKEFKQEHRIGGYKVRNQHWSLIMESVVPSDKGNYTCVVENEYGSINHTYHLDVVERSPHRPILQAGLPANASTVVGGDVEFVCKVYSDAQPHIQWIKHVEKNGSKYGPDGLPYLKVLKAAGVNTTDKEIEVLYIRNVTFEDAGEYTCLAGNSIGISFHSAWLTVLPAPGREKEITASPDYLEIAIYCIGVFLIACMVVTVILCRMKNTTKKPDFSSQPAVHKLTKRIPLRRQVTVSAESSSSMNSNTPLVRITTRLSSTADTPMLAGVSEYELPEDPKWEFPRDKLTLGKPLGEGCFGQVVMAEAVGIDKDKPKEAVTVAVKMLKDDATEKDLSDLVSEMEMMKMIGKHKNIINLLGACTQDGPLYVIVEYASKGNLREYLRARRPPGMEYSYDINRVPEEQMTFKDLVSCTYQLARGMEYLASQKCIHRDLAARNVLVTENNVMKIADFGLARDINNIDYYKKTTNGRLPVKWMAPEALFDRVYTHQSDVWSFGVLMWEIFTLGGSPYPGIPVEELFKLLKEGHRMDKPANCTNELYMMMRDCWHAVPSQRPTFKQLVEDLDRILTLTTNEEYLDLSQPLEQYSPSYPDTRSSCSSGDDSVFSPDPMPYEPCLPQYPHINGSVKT
FGFR2 (P), sequence (P21802 22-821): as the sequence (P21802 22-821 limits assumed) above
FGFR2 (UP), sequence (P21802 22-821): as the sequence (P21802 22-821 limits assumed) above
ALK2 (aa 147-end), sequence (Q04771 147-509): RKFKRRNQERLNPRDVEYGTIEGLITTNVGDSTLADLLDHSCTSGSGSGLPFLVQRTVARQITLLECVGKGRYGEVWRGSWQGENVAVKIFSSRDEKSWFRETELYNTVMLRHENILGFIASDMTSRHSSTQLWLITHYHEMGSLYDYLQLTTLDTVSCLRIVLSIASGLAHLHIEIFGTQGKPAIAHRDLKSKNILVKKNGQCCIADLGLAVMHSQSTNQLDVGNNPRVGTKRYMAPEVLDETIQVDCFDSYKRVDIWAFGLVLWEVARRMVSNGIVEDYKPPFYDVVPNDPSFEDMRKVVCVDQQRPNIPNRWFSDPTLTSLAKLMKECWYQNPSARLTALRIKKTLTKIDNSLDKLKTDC
Procedure for FGFR1 (UP): (§2) The inhibitor potency of the exemplified compounds was determined in an enzyme discontinuous assay that measures peptide phosphorylation using FRET measurements to detect product formation. Inhibitors were serially diluted in DMSO and a volume of 0.2 μL was transferred to the wells of a 384-well plate. For the isoforms of FGFR (−1, −2, −3 wild-type and mutant isoforms, −4) including phosphorylated (P) and un-phosphorylated (UP) proteins, a 5 μL/well volume of enzyme diluted in assay buffer (50 mM HEPES, 10 mM MgCl2, 1 mM EGTA, 0.01% Tween-20, 5 mM DTT, pH 7.5) was added to the plate and pre-incubated with inhibitor for 5 to 15 minutes at ambient temperature. Appropriate controls (enzyme blank and enzyme with no inhibitor) were included on the plate. The reaction was initiated by the addition of a 5 μL/well volume containing both biotinylated [sequence] […] The plate was allowed to equilibrate for −10 minutes at ambient temperature before scanning on a PheraStar plate reader (BMG Labtech) instrument.
(§3) Either GraphPad prism or XLfit was used to analyze the data. The IC50 values were derived by fitting the data to a four parameter logistic equation producing a sigmoidal dose-response curve with a variable Hill coefficient. Prism equation: Y=Bottom+(Top−Bottom)/(1+10^((LogIC50−X)*Hill slope)); XLfit equation: Y=(A+((B−A)/(1+((X/C)^D)))) where X is the logarithm of inhibitor concentration and Y is the response.
Procedure for FGFR3 (UP): as §2, §3

Regarding `Cn1cc(-c2n[nH]c3cnc(N4C5CCC4c4cn[nH]c4C5)nc23)cn1` (stereo not shown) [Example 45, 9-(3-(1-Methyl-1H-pyrazol-4-yl)-1H-pyrazolo[4,3-d]pyrimidin-5-yl)-1,4,5,6,7,8-hexahydro-4,7-epiminocyclohepta[c]pyrazole], the IC50 against ALK2 (aa 147-end) (ALK2 3 μM IC50, 3 uM ATP) is 500 to 2000 nM; on ALK2 (aa 147-end) (ALK2 100 μM IC50, 100 uM ATP), 500 to 2000 nM; at FGFR1 (setting [1]), 500 to 2000 nM; on FGFR3 it was 100 to 500 nM; in the assay on RT112 cells it was 100 to 500 nM; on FGFR2 (P) it was less than 100 nM. Further, the IC50 on FGFR3 (UP), at FGFR1 (UP) (setting [2]) and on FGFR2 (UP) was less than 100 nM each time.
As to `CN1CC2CCC(C1=O)N2c1ncc2[nH]nc(-c3cnn(C)c3)c2n1` (stereo not shown) [Example 49, 3-Methyl-8-(3-(1-methyl-1H-pyrazol-4-yl)-1H-pyrazolo[4,3-d]pyrimidin-5-yl)-3,8-diazabicyclo[3.2.1]octan-2-one], the IC50 at ALK2 (aa 147-end) (ALK2 3 μM IC50, 3 uM ATP) is 500 to 2000 nM; at ALK2 (aa 147-end) (setting [3]) it was more than 2000 nM; on FGFR1 (setting [1]), 500 to 2000 nM; against FGFR3 it was less than 100 nM; with RT112 cells, 100 to 500 nM; at FGFR2 (P), less than 100 nM. The IC50 at FGFR3 (UP), on FGFR1 (UP) (setting [2]) and at FGFR2 (UP) was less than 100 nM each time.
In the case of `CCN1CC2CCC(C1=O)N2c1ncc2[nH]nc(-c3cnn(C)c3)c2n1` (stereo not shown) [Example 50, 3-Ethyl-8-(3-(1-methyl-1H-pyrazol-4-yl)-1H-pyrazolo[4,3-d]pyrimidin-5-yl)-3,8-diazabicyclo[3.2.1]octan-2-one], the IC50 against FGFR1 is 100 to 500 nM; against FGFR3, 100 to 500 nM; in the assay with RT112 cells, 100 to 500 nM; on FGFR2 (P), less than 100 nM; on FGFR3 (UP), less than 100 nM; at FGFR1 (UP), 100 to 500 nM.
On to `CC(C)N1CC2CCC(C1=O)N2c1ncc2[nH]nc(-c3cnn(C)c3)c2n1` (stereo not shown) [Example 52, 3-Isopropyl-8-(3-(1-methyl-1H-pyrazol-4-yl)-1H-pyrazolo[4,3-d]pyrimidin-5-yl)-3,8-diazabicyclo[3.2.1]octan-2-one], for which the IC50 against FGFR1 is 100 to 500 nM; against FGFR3, 100 to 500 nM; in the assay on RT112 cells, 100 to 500 nM; on FGFR2 (P), less than 100 nM; on FGFR3 (UP) it was less than 100 nM; against FGFR1 (UP), 100 to 500 nM.
`CN1CC2CCC(C1=O)N2c1ncc2[nH]nc(-c3cnn(-c4ccncc4)c3)c2n1` (stereo not shown) [Example 68, 3-Methyl-8-(3-(1-(pyridin-4-yl)-1H-pyrazol-4-yl)-1H-pyrazolo[4,3-d]pyrimidin-5-yl)-3,8-diazabicyclo[3.2.1]octan-2-one]: the IC50 against ALK2 (aa 147-end) (ALK2 3 μM IC50, 3 uM ATP) is 500 to 2000 nM; at ALK2 (aa 147-end) (setting [3]), more than 2000 nM; on FGFR2, less than 100 nM; at FGFR3, less than 100 nM; in the assay with RT112 cells, 100 to 500 nM; on FGFR2 (P), less than 100 nM. Also, the IC50 on FGFR3 (UP), at FGFR1 (UP) (setting [2]) and at FGFR2 (UP) was less than 100 nM each time.
As to `CN1CC2CCC(C1=O)N2c1ncc2[nH]nc(-c3cnn(-c4ccc(C#N)cc4)c3)c2n1` (stereo not shown) [Example 70, 4-(4-(5-(3-Methyl-2-oxo-3,8-diazabicyclo[3.2.1]octan-8-yl)-1H-pyrazolo[4,3-d]pyrimidin-3-yl)-1H-pyrazol-1-yl)benzonitrile], the IC50 was 500 to 2000 nM on ALK2 (aa 147-end) (ALK2 3 μM IC50, 3 uM ATP); more than 2000 nM at ALK2 (aa 147-end) (setting [3]); less than 100 nM at FGFR2; less than 100 nM at FGFR3; less than 100 nM in the assay with RT112 cells; less than 100 nM on FGFR2 (P). Also, the IC50 on FGFR3 (UP), at FGFR1 (UP) (setting [2]) and on FGFR2 (UP) was less than 100 nM in each case.
As to `CN1CC2CCC(C1=O)N2c1ncc2[nH]nc(-c3cnn(-c4ccc(N(C)C)nc4)c3)c2n1` (stereo not shown) [Example 72, 8-(3-(1-(6-(Dimethylamino)pyridin-3-yl)-1H-pyrazol-4-yl)-1H-pyrazolo[4,3-d]pyrimidin-5-yl)-3-methyl-3,8-diazabicyclo[3.2.1]octan-2-one], the IC50 on ALK2 (aa 147-end) (ALK2 3 μM IC50, 3 uM ATP) was 500 to 2000 nM; against ALK2 (aa 147-end) (ALK2 100 μM IC50, 100 uM ATP), 500 to 2000 nM; at FGFR2, less than 100 nM; against FGFR3, less than 100 nM; with RT112 cells it was 100 to 500 nM; on FGFR2 (P), less than 100 nM. The IC50 on FGFR3 (UP), at FGFR1 (UP) (setting [2]) and at FGFR2 (UP) was less than 100 nM throughout.
For the molecule `Cc1cc(-n2cc(-c3n[nH]c4cnc(N5C6CCC5C(=O)N(C)C6)nc34)cn2)ccc1C#N` (stereo not shown) [Example 76, 2-Methyl-4-(4-(5-(3-methyl-2-oxo-3,8-diazabicyclo[3.2.1]octan-8-yl)-1H-pyrazolo[4,3-d]pyrimidin-3-yl)-1H-pyrazol-1-yl)benzonitrile], the concentration for half-maximal inhibition (IC50) at ALK2 (aa 147-end) (ALK2 3 μM IC50, 3 uM ATP) is 500 to 2000 nM; against ALK2 (aa 147-end) (ALK2 100 μM IC50, 100 uM ATP) it was 500 to 2000 nM; at FGFR2, less than 100 nM; at FGFR3, less than 100 nM; with RT112 cells, less than 100 nM; on FGFR2 (P) it was less than 100 nM. The concentration for half-maximal inhibition (IC50) on FGFR3 (UP), on FGFR1 (UP) (setting [2]) and on FGFR2 (UP) was less than 100 nM each time.
Regarding `c1ccc2c(-c3cnn4cc(-c5ccc(N6CCNCC6)cc5)cnc34)ccnc2c1` [LDN-19318917], in the assay with ALK2 mutant DIPG cell, the “inhibition of ALK2 mutant DIPG cell viability” value is on record as “significant inhibition”.
